Assay [1] deals with TNFα production in LPS-stimulated human monocytes. Briefly: Cot Monocyte TNFα Cell Based Assay. The note with it: Homo sapiens, Monocyte, read-out: EC50 TNF. Put shortly:
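Percent-of-control values derive from TR-FRET ratios of TNFα in spun-down media, referenced to unstimulated and LPS-stimulated wells. Exposure: 1 h compound preincubation, then 50 pg/ml LPS for 4 h, both at 37 °C, with 0.5% final DMSO.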

In assay [2] the target is T1, human Cot catalytic domain (30-397 amino acids) (Homo sapiens, UniProt P41279).
T1 construct: Purified recombinant human Cot catalytic domain (30-397 amino acids) was purchased from Cama Biosciences; purchased Cama Biosciences (so in the source)
Kind of assay: High Throughput Cot Biochemical Assay (KinEASE TR-FRET). The following applies: read-out: IC50 HTRF. The method, boiled down: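 Phosphorylation of 1 μM XL665-STK3 peptide by 5 nM Cot catalytic domain was measured by time-resolved FRET using a europium […] antibody. ATP was 400 μM; buffer was 10 mM MOPS pH 7.0 with Mg2+ and DTT.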
A general note: Time-resolved FRET reads energy transfer from a long-lived donor to a nearby acceptor.

Setting [3] is: LPS-stimulated human monocytes, TNFα TR-FRET.
The mark [4] stands for this setting: Cot KinEASE TR-FRET, 400 μM ATP.
The mark [5] stands for this setting: TNFα in LPS-stimulated human monocytes.
Setting [6] is: Cot KinEASE TR-FRET (HTRF) biochemical assay, 400 μM ATP.
[7] abbreviates: Cot biochemical HTRF (KinEASE TR-FRET) assay.

The term EC50 denotes the concentration needed to bring the measured effect to its halfway point. One may read the IC50 as the concentration at which inhibition is half-maximal.

Like-named read-outs stand apart in the source and are kept apart here.

T1 sequence (P41279 30-397): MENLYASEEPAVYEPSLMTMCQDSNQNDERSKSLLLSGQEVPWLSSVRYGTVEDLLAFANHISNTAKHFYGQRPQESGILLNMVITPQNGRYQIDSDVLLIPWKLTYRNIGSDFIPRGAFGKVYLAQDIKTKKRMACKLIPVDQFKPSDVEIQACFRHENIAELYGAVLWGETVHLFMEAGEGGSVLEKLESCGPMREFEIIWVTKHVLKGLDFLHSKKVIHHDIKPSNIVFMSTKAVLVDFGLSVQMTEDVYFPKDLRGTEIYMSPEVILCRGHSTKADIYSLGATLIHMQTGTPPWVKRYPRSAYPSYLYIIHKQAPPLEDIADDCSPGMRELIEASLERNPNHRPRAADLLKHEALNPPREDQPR

For the compound `CCOC(=O)c1cccc([C@H](Nc2cc(Cl)c3ncc(C#N)c(NCC(C)(C)C)c3c2)c2cn(C3(C(F)(F)F)CC3)nn2)c1F` [Example 1087, ethyl (S)-3-(((8-chloro-3-cyano-4-(neopentylamino)quinolin-6-yl)amino)(1-(1-(trifluoromethyl)cyclopropyl)-1H-1,2,3-triazol-4-yl)methyl)-2-fluorobenzoate], in assay [1] (setting [3]), the EC50 came to 375 nM. In addition, in assay [2] (setting [4]), the IC50 was 22 nM.

As for `[2H][C@@](Nc1cc(Cl)c2ncc(C#N)c(NCC(C)(C)C)c2c1)(c1cn(C2(c3cccnc3)CC2)nn1)c1ccccc1Cl` [Example 960, 8-chloro-6-(((2-chlorophenyl)(1-(1-(pyridin-3-yl)cyclopropyl)-1H-1,2,3-triazol-4-yl)methyl-d)amino)-4-(neopentylamino)quinoline-3-carbonitrile], the EC50 in assay [1] (setting [3]) is 86 nM. For the same compound, in assay [2] (setting [4]), the IC50 was determined as 12 nM.

Take `[2H][C@](Nc1cc(Cl)c2ncc(C#N)c(N[C@@H](CC#N)c3ccccc3)c2c1)(c1ccc(F)cc1)c1cn(C2CC2)nn1` [Example 334, 8-chloro-4-(((S)-2-cyano-1-phenylethyl)amino)-6-(((S)-(1-cyclopropyl-1H-1,2,3-triazol-4-yl)(4-fluorophenyl)methyl-d)amino)quinoline-3-carbonitrile]: the EC50 in assay [1] (setting [5]) is above 10000 nM. Also, in assay [2] (setting [6]), the IC50 stood at 258 nM.

Turning to `Cc1c(C#N)cccc1[C@H](Nc1cc(Cl)c2ncc(C#N)c(NCC(C)(C)C(F)(F)F)c2c1)c1cn(C2(C(F)F)CC2)nn1` [Example 1089, (S)-8-chloro-6-(((3-cyano-2-methylphenyl)(1-(1-(difluoromethyl)cyclopropyl)-1H-1,2,3-triazol-4-yl)methyl)amino)-4-((3,3,3-trifluoro-2,2-dimethylpropyl)amino)quinoline-3-carbonitrile], the EC50 in assay [1] (setting [3]) is 23 nM. Moreover, in assay [2] (setting [4]), the IC50 was 7 nM.

Take `N#CCC[C@@H](Nc1c(C#N)cnc2c(Cl)cc(N[C@H](c3cn(CC#N)nn3)c3ccccc3Cl)cc12)c1ccccc1` [Example 66, 8-chloro-6-(((S)-(2-chlorophenyl)(1-(cyanomethyl)-1H-1,2,3-triazol-4-yl)methyl)amino)-4-(((R)-3-cyano-1-phenylpropyl)amino) quinoline-3-carbonitrile]: in assay [1] (setting [5]), the EC50 came out at 96 nM. In addition, the IC50 in assay [2] (setting [6]) is 5 nM.

With `CN(C)CCCn1cc([C@@H](Nc2cc(Cl)c3ncc(C#N)c(Nc4ccc(F)c(Cl)c4)c3c2)c2ccccc2)nn1` [Example 797, (S)-8-chloro-4-((3-chloro-4-fluorophenyl)amino)-6-(((1-(3-(dimethylamino)propyl)-1H-1,2,3-triazol-4-yl)(phenyl)methyl)amino) quinoline-3-carbonitrile], the EC50 in assay [1] (setting [5]) was found to be 107 nM. Besides, in assay [2] (setting [7]), the IC50 was determined as 3 nM.

With `CC(C)(C)N1CCC(n2cc([C@@H](Nc3cc(Cl)c4ncc(C#N)c(N)c4c3)c3ccccc3)nn2)CC1` [Example 504, (S)-4-amino-6-(((1-(1-(tert-butyl)piperidin-4-yl)-1H-1,2,3-triazol-4-yl)(phenyl)methyl)amino)-8-chloroquinoline-3-carbonitrile], in assay [1] (setting [5]), the EC50 stood at 8510 nM. In addition, the IC50 in assay [2] (setting [7]) came to 1780 nM.

On to `CC1(Cn2cc([C@@H](Nc3cc(Cl)c4ncc(C#N)c(Nc5cnc(F)c(F)c5)c4c3)c3ccc(F)cc3)nn2)CC1` [Example 412, (S)-8-chloro-4-((5,6-difluoropyridin-3-yl)amino)-6-(((4-fluorophenyl)(1-((1-methylcyclopropyl)methyl)-1H-1,2,3-triazol-4-yl)methyl)amino)quinoline-3-carbonitrile], for which the half-maximal effective concentration (EC50) in assay [1] (setting [5]) was 2220 nM. Further, the IC50 in assay [2] (setting [7]) was determined as 50 nM.

For the compound `CCN1CC2C(C1)C2n1cc([C@@H](Nc2cc(Cl)c3ncc(C#N)c(Nc4ccc(F)c(Cl)c4)c3c2)c2ccccc2)nn1` (stereo partly drawn) [Example 576, 8-chloro-4-((3-chloro-4-fluorophenyl)amino)-6-(((1S)-(1-(3-ethyl-3-azabicyclo[3.1.0]hexan-6-yl)-1H-1,2,3-triazol-4-yl)(phenyl)methyl)amino) quinoline-3-carbonitrile], the EC50 in assay [1] (setting [5]) is 72 nM. For the same compound, in assay [2] (setting [7]), the IC50 was determined as 2 nM.

Take `[2H]C(Nc1cc(Cl)c2ncc(C#N)c(NC3CCCC4CC43)c2c1)(c1ccc(F)cc1)c1cn(C2CC2)nn1` (stereo in doubt) [Example 250, 4-(bicyclo[4.1.0]heptan-2-ylamino)-8-chloro-6-(((S)-(1-cyclopropyl-1H-1,2,3-triazol-4-yl)(4-fluorophenyl)methyl-d)amino)quinoline-3-carbonitrile]: in assay [1] (setting [5]), the EC50 worked out at 993 nM. Moreover, the IC50 in assay [2] (setting [6]) is 147 nM.

Take `CC(C)(C)N1CCC(n2cc([C@@H](Nc3cc(Cl)c4ncc(C#N)c(NCCCc5ccccc5)c4c3)c3ccc(Cl)cc3)nn2)CC1` [Example 681, (S)-6-(((1-(1-(tert-butyl)piperidin-4-yl)-1H-1,2,3-triazol-4-yl)(4-chlorophenyl)methyl)amino)-8-chloro-4-((3-phenylpropyl)amino)quinoline-3-carbonitrile]: the EC50 in assay [1] (setting [5]) is 12800 nM. Besides, the IC50 in assay [2] (setting [7]) was found to be 434 nM.

`CC(C)(C)N1CCC(n2cc([C@@H](Nc3cc(Cl)c4ncc(C#N)c(N[C@H]5CCOc6ccccc65)c4c3)c3ccccc3)nn2)CC1` [Example 507, 6-(((S)-(1-(1-(tert-butyl)piperidin-4-yl)-1H-1,2,3-triazol-4-yl)(phenyl)methyl)amino)-8-chloro-4-(((S)-chroman-4-yl)amino)quinoline-3-carbonitrile]: the EC50 in assay [1] (setting [5]) was 8510 nM. Further, the IC50 in assay [2] (setting [7]) was found to be 741 nM.

`[2H][C@](Nc1cc(Cl)c2ncc(C#N)c(NCC(C)(C)C)c2c1)(c1ccc(F)cc1)c1cn(-c2cccnc2)nn1` [Example 335, (S)-8-chloro-6-(((4-fluorophenyl)(1-(pyridin-3-yl)-1H-1,2,3-triazol-4-yl)methyl-d)amino)-4-(neopentylamino)quinoline-3-carbonitrile]: the EC50 in assay [1] (setting [5]) was found to be 204 nM. In addition, in assay [2] (setting [6]), the IC50 was 40 nM.

As for `CC(=O)c1cccc([C@H](Nc2cc(Cl)c3ncc(C#N)c(Nc4ccc(F)c(Cl)c4)c3c2)c2cn(C3CCN(C(C)(C)C)CC3)nn2)c1` [Compound 21], in assay [1] (setting [5]), the EC50 amounted to 234 nM. The IC50 in assay [2] (setting [6]) was 5 nM.

`CC(C)N1CCC(n2cc([C@@H](Nc3cc(Cl)c4ncc(C#N)c(Nc5ccc(F)c(Cl)c5)c4c3)c3ccc(F)cc3)nn2)CC1` [Example 825, (S)-8-chloro-4-((3-chloro-4-fluorophenyl)amino)-6-(((4-fluorophenyl)(1-(1-isopropylpiperidin-4-yl)-1H-1,2,3-triazol-4-yl)methyl)amino)quinoline-3-carbonitrile]: the EC50 in assay [1] (setting [5]) came out at 150 nM. Besides, the IC50 in assay [2] (setting [7]) is 4 nM.

On to `CCN1CCC(n2cc(C(Nc3cc(Cl)c4ncc(C#N)c(Nc5ccc(F)c(Cl)c5)c4c3)c3cccc(F)c3)nn2)CC1` (stereo not drawn) [Example 907, 8-chloro-4-((3-chloro-4-fluorophenyl)amino)-6-(((1-(1-ethylpiperidin-4-yl)-1H-1,2,3-triazol-4-yl)(3-fluorophenyl)methyl)amino) quinoline-3-carbonitrile], for which the EC50 in assay [1] (setting [5]) stood at 128 nM. The IC50 in assay [2] (setting [7]) was found to be 5 nM.

Consider `Cc1c(-c2ccnnc2)cccc1[C@H](Nc1cc(C#N)c2ncc(C#N)c(NCC(C)(C)C)c2c1)c1cn(C2(C(F)(F)F)CC2)nn1` [Example 1134, (S)-6-(((2-methyl-3-(pyridazin-4-yl)phenyl)(1-(1-(trifluoromethyl)cyclopropyl)-1H-1,2,3-triazol-4-yl)methyl)amino)-4-(neopentylamino)quinoline-3,8-dicarbonitrile], for which the EC50 in assay [1] (setting [3]) stood at 57 nM. Besides, the IC50 in assay [2] (setting [4]) came out at 2 nM.

Turning to `N#Cc1cnc2c(Cl)cc(NC(c3ccc(Cl)cc3)c3cn(C4CNC4)nn3)cc2c1Nc1ccc(F)c(Cl)c1` (stereo not drawn) [Example 872, 6-(((1-(azetidin-3-yl)-1H-1,2,3-triazol-4-yl)(4-chlorophenyl)methyl)amino)-8-chloro-4-((3-chloro-4-fluorophenyl)amino)quinoline-3-carbonitrile], the EC50 in assay [1] (setting [5]) was found to be 1310 nM. Further, the IC50 in assay [2] (setting [7]) came to 41 nM.

Turning to `Cc1c(-c2ccccn2)cccc1[C@H](Nc1cc(C#N)c2ncc(C#N)c(NCC(C)(C)C)c2c1)c1cn(C2(C(F)(F)F)CC2)nn1` [Example 1144, (S)-6-(((2-methyl-3-(pyridin-2-yl)phenyl)(1-(1-(trifluoromethyl)cyclopropyl)-1H-1,2,3-triazol-4-yl)methyl)amino)-4-(neopentylamino)quinoline-3,8-dicarbonitrile], the EC50 in assay [1] (setting [3]) was determined as 379 nM. For the same compound, in assay [2] (setting [4]), the IC50 was found to be 11 nM.

In the case of `C[C@@H](Nc1c(C#N)cnc2c(Cl)cc(N[C@@H](c3ccccc3)c3cn(C4CCN(C(C)(C)C)CC4)nn3)cc12)c1cccc(F)c1` [Example 633, 6-(((S)-(1-(1-(tert-butyl)piperidin-4-yl)-1H-1,2,3-triazol-4-yl)(phenyl)methyl)amino)-8-chloro-4-(((R)-1-(3-fluorophenyl)ethyl)amino) quinoline-3-carbonitrile], in assay [1] (setting [5]), the EC50 was found to be 1580 nM. Besides, in assay [2] (setting [7]), the IC50 came to 10 nM.

As to `Cc1cc(F)ccc1[C@H](Nc1cc(Cl)c2ncc(C#N)c(NCC(C)(C)C)c2c1)c1cn(C2(C(F)F)CC2)nn1` [Example 1076, (S)-8-chloro-6-(((1-(1-(difluoromethyl)cyclopropyl)-1H-1,2,3-triazol-4-yl)(4-fluoro-2-methylphenyl)methyl)amino)-4-(neopentylamino)quinoline-3-carbonitrile], the EC50 in assay [1] (setting [3]) was 182 nM. For the same compound, the IC50 in assay [2] (setting [4]) was found to be 37 nM.

Values taken from patent publication US10316017B2, “COT modulators and methods of use thereof” (Gilead Sciences, Inc., priority 2015, dated 2019).
